# Measured values reported in article PMC9798004 (Frontiers in Psychiatry, 2022).
# pIC50: −log10 of the molar value. Entries after “also recorded” stand apart in the source; their conditions may differ.
# Tests used:
# Type in all cases: cell-based
# CHRM3 = CHRM3 (Homo sapiens, UniProt P20309)
# HCRTR1 = target: T1, HCRTR1 (Homo sapiens, UniProt O43613); assay: PathHunter β-arrestin assay
# T1 sequence (O43613 1-425): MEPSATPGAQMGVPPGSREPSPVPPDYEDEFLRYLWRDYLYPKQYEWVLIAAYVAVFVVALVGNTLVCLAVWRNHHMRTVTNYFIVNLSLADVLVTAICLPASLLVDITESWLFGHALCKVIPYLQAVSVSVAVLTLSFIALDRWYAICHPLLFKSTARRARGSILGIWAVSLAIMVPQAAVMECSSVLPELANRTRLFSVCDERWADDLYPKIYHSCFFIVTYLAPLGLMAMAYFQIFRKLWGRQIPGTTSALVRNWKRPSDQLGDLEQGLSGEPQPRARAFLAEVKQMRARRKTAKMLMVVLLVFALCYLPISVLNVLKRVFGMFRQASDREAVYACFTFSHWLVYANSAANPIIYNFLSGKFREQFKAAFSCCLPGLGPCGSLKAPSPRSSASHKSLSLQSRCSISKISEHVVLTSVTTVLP
# CCR8 = CCR8 (Homo sapiens, UniProt P51685); assay: PathHunter β-arrestin assay; conditions: antagonist mode vs EC80 of control agonist, 10-point curve
# CCR4 = target: T2, CCR4 (Homo sapiens, UniProt P51679); assay: PathHunter β-arrestin assay; conditions: antagonist mode vs EC80 of control agonist, 10-point curve
# T2 sequence (P51679 1-360): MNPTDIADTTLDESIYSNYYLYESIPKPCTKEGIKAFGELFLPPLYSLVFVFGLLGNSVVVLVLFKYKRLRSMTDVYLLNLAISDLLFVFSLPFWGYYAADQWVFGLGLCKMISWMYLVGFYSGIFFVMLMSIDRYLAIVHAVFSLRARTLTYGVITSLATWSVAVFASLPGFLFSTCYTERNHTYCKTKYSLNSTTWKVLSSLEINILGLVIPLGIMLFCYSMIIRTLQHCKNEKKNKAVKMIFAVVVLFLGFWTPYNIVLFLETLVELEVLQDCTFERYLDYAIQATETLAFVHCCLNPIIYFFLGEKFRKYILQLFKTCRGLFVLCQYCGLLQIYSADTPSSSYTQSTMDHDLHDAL
# CCR6 = target: T3, CCR6 (Homo sapiens, UniProt P51684); assay: PathHunter β-arrestin assay; conditions: antagonist mode, up to 30 μM
# T3 construct: purchased Eurofins DiscoverX (PathHunter gpcrMAX)
# T3 sequence (P51684 1-374): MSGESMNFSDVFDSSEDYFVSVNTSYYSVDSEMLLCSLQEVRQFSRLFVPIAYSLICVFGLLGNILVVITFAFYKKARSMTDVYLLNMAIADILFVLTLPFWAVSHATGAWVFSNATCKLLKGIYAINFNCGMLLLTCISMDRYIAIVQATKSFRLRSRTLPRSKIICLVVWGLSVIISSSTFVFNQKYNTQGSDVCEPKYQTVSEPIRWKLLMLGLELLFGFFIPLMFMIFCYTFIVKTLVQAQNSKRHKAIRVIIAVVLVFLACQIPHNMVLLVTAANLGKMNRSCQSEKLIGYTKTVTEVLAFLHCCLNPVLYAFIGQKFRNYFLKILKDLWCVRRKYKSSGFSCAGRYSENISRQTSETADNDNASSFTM
# GLP2R = target: T4, GLP2R (Homo sapiens, UniProt O95838); assay: PathHunter β-arrestin assay; conditions: antagonist mode vs EC80 of control agonist, 10-point curve
# T4 sequence (O95838 1-553): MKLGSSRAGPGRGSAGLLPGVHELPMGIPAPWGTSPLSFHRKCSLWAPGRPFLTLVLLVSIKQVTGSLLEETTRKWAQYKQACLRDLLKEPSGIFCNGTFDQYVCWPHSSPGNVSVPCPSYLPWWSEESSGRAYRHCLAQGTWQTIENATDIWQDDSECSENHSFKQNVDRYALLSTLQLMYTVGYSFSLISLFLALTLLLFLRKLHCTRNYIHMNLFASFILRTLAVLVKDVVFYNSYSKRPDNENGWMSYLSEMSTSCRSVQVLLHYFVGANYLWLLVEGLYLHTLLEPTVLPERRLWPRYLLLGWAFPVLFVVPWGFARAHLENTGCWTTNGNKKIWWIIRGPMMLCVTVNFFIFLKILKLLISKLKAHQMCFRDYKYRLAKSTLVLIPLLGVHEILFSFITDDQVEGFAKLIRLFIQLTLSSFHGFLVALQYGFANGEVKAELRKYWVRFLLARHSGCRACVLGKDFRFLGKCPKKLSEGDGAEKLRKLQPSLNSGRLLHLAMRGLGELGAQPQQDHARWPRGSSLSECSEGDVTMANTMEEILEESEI
# In short: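 RC50 values derive from four-parameter fits of normalized responses across ten concentrations (1.5–30 μM), run in technical replicate. In antagonist mode, cells received the appropriate agonist at its EC80.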
# CCR9 = target: T5, CCR9 (Homo sapiens, UniProt P51686); assay: PathHunter β-arrestin assay; conditions: antagonist mode, up to 30 μM
# T5 construct: purchased Eurofins DiscoverX (PathHunter gpcrMAX)
# T5 sequence (P51686 1-369): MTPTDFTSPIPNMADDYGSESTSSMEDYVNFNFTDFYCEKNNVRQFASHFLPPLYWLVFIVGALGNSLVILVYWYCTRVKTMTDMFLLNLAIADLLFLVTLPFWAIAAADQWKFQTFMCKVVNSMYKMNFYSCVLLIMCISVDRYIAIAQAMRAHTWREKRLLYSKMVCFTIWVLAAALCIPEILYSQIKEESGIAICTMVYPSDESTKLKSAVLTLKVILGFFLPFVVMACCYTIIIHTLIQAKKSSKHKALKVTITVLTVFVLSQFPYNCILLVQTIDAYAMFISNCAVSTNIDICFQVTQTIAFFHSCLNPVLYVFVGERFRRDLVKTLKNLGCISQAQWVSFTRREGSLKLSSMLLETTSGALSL
# Chain of CHRM3 (P20309 whole entry): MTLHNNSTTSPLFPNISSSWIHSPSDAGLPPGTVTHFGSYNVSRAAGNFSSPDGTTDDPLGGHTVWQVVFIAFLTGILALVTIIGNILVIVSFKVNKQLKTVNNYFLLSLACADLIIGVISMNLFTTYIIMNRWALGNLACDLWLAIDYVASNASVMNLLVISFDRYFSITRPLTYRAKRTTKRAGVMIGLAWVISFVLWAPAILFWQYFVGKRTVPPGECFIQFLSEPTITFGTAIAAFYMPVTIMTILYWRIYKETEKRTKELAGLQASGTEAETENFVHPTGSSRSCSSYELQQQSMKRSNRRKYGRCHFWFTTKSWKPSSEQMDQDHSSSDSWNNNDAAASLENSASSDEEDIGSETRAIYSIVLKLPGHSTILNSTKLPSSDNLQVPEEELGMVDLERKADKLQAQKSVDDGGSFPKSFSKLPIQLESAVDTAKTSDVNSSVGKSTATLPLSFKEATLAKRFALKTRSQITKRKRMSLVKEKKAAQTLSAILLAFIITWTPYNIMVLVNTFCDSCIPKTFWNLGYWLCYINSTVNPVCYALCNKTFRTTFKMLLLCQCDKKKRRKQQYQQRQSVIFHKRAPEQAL
# Chain of CCR8 (P51685 whole entry): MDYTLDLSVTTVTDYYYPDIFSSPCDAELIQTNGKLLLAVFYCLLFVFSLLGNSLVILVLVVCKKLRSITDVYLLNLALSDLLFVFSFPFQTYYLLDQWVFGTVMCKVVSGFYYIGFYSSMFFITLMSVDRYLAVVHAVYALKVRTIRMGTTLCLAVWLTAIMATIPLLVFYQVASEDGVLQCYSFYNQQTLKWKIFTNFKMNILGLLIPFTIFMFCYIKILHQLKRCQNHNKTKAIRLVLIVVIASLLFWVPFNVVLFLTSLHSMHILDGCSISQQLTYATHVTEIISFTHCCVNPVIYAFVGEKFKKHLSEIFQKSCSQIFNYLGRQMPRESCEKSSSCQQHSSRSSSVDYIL
smiles,measurement,setting,value
COC(=O)[C@@H](NC(=O)c1nn(Cc2ccc(F)cc2)c2ccccc12)C(C)C [AMB-FUBINACA],pIC50,CHRM3,5.16
same,pIC50,"HCRTR1; antagonist mode vs EC80 of control agonist, 10-point curve",5.07
same,maximum inhibition,"HCRTR1; antagonist mode, concentration-response up to 30 μM",73.00%
same,pIC50,CCR8,5.10
same,pIC50,CCR4,4.94
same,inhibitory activity in concentration-response,CCR6,Activity was only observed at the highest concentration (30 μM)
same,pIC50,GLP2R,4.88
same,inhibitory activity in concentration-response,CCR9,Activity was only observed at the highest concentration (30 μM); also recorded: only inhibited at the highest 30 μM concentration
